Results published in ChEMBL document CHEMBL3232826.
Counter-ions that a name gives are not always drawn.

How the values were obtained:
in vitro = settings: dog, MDCK cells
Description: Selectivity index, ratio of CTD50 for MDCK cells to ED50 for Influenza A virus (A/California/07/09(H1N1)) pdm09

[1] = Cytotoxicity against MDCK cells assessed as cell viability after 48 hrs by MTT assay; format: cell-based, Canis lupus familiaris; settings: dog, read-out: CTD50

| SMILES | selectivity ratio (in vitro) | CC50 at 48 h [1] |
| --- | --- | --- |
| NC12CC3CC(CC(C3)C1)C2 [AMANTADINE] | 4 | – |
| CC1(C)[C@@H]2CC[C@@]1(C)/C(=N/CCCCCCCC/N=C1\C[C@H]3CC[C@]1(C)C3(C)C)C2 | 16 | 390 µM |
| CC1(C)[C@@H]2CC[C@@]1(C)/C(=N/CCCCCCCCCCCC/N=C1\C[C@H]3CC[C@]1(C)C3(C)C)C2 | 49 | 2220 µM |
| CC1(C)[C@@H]2CC[C@@]1(C)/C(=N/c1ccc(Cc3ccc(/N=C4\C[C@H]5CC[C@]4(C)C5(C)C)cc3)cc1)C2 | 3 | > 1070 µM |
| CC1(C)[C@@H]2CC[C@@]1(C)/C(=N/CCC/N=C1\C[C@H]3CC[C@]1(C)C3(C)C)C2 | 30 | 284 µM |
| CC1(C)C2CC[C@@]1(C)C(=O)C2 [CAMPHOR] | 2 | – |
| CC(N)C12CC3CC(CC(C3)C1)C2 (stereo unspecified) [RIMANTADINE HYDROCHLORIDE] | 5 | – |
| CC1(C)[C@@H]2CC[C@@]1(C)[C@H](NCCCCCCCN[C@@H]1C[C@H]3CC[C@]1(C)C3(C)C)C2 | 3 | 10.4 µM |
| CC1(C)[C@@H]2CC[C@@]1(C)[C@H](NCCCCCCN[C@@H]1C[C@H]3CC[C@]1(C)C3(C)C)C2 | 7 | 5.4 µM |
| CC1(C)[C@@H]2CC[C@@]1(C)[C@H](NCCCCCCCCCCCCN[C@@H]1C[C@H]3CC[C@]1(C)C3(C)C)C2 | 3 | 14.4 µM |
| CC1(C)[C@@H]2CC[C@@]1(C)[C@H](Nc1ccc(Oc3ccc(N[C@@H]4C[C@H]5CC[C@]4(C)C5(C)C)cc3)cc1)C2 | 3 | > 636 µM |
| CN(CCCCCCN(C)[C@@H]1C[C@H]2CC[C@]1(C)C2(C)C)[C@@H]1C[C@H]2CC[C@]1(C)C2(C)C | 1 | 110 µM |
| CC1(C)[C@@H]2CC[C@@]1(C)[C@H](Nc1ccc(Cc3ccc(N[C@@H]4C[C@H]5CC[C@]4(C)C5(C)C)cc3)cc1)C2 | 4 | > 638 µM |
| CC1(C)[C@@H]2CC[C@@]1(C)/C(=N/c1ccc(Oc3ccc(N)cc3)cc1)C2 | 8 | 32.9 µM |
| CN(CCCCCCCN(C)[C@@H]1C[C@H]2CC[C@]1(C)C2(C)C)[C@@H]1C[C@H]2CC[C@]1(C)C2(C)C | 17 | 698 µM |
| CC1(C)[C@@H]2CC[C@@]1(C)/C(=N/CCCCCCC/N=C1\C[C@H]3CC[C@]1(C)C3(C)C)C2 | 55 | 1260 µM |
| CC1(C)[C@@H]2CC[C@@]1(C)/C(=N/CCCCCC/N=C1\C[C@H]3CC[C@]1(C)C3(C)C)C2 | 89 | 1350 µM |
| CC1(C)[C@@H]2CC[C@@]1(C)/C(=N/c1ccc(Oc3ccc(/N=C4\C[C@H]5CC[C@]4(C)C5(C)C)cc3)cc1)C2 | 3 | > 1070 µM |
| CC1(C)[C@@H]2CC[C@@]1(C)/C(=N/c1ccc(Cc3ccc(N)cc3)cc1)C2 | 2 | 30.1 µM |
| CC(N)C1CC2CCC1C2 (stereo unspecified) | – | 1270 µM |
